Key:
[1] = target: T1, PDE 4 enzyme; assay: PDE 4 enzyme inhibition (SPA); format: biochemical; conditions: PDE 4 isolated from U937 cell line; SPA with 3H-cAMP
T1 construct: % at 10^−7; other: at 10^−7; PDE 4 from U937 cell line; other: PDE 4 isolated from U937 cell line; SPA with 3H-cAMP
Experimental: a) PDE 4 Enzyme Purification
PDE 4 enzyme was isolated from U937 cell line according to the method of Nielson et al. (J. Allergy Clin. Immunol. 1990, vol. 86, pages 801-807) partially modified for the FPLC technique (Fast Protein Liquid Chromatography).
U-937cell line (Istituto Zooprofilattico Sperimentale, Brescia, Italy) was maintained in RPMI 1640, with 10% foetal calf serum and 2 mM glutamine, at a cell density between 1×10^6 and 8×10^6 cells per ml in an incubator at 37° C. with 5% CO2.
U937 suspension was homogenised in a buffer containing 10 mM TRIS (tri-(hydroxymethyl)-aminomethane), 5 mM MgCl2, 4 mM EGTA (ethyleneglycol-bis-(β-aminoethylether)-N,N,N′N′-tetra-acetic acid), 5 mM […]-mercaptoethanol, 1 μM leupeptin, 1 μM pepstatin, 1% TRITON x-100, and 100 μM phenylmethyl sulfonyl fluoride (PMSF) at pH 7.8.
The homogenate was centrifuged and the supernatant was used for the purification of the PDE 4 enzyme; it was seeded on a column connected to a biologic chromatography system (FPLC, BIO RAD).
PDE 4 enzyme was eluted with a linear gradient, from 0.05 M to 1 M of sodium acetate, and elution fractions were collected for PDE4 activity assay.
The fractions containing PDE4 activity were collected and, after an overnight dialysis against water to remove sodium acetate, were concentrated to 30% volume with an Amicon filtration system (using YM10 membrane filter).
Ethylene glycol (30% v/v) was added and the sample was stored at −20° C. in a single aliquot until the use.
PDE 4 activity assay was performed using Scintillation Proximity Assay (SPA) Amershan kit consisting of tracer ^3H-cAMP, PDE assay buffer (10×solution: 500 mM TRIS/HCl pH 7.5, 83 mM MgCl2 and 17 mM EGTA) and Yttrium SPA PDE beads (containing 18 mM zinc sulphate).
The radioactivity of the beads was measured using a scintillation counter (Packard model MINAXI β TRI-CARB 4000 SERIES).
The IC50 values were calculated from concentration-inhibition curves by non linear regression analysis using the program ORIGIN 3.5 (MICROCAL SOFTWARE INC.) and each fitting was the mean±SEM of 3 experiments using different PDE 4 preparations.

[2] = Pharmacokinetic study in rats; format: in vivo; conditions: for PK rat t/2: 10 mg/kg oral or 3 mg/kg intravenously, mixture of 3-5 compounds; for bioavailability: plasma, rat, oral 10 mg/kg in N-methylglucosamine/PG/Tween 80 (physiologic vehicle), read-out: PK rat % F
Experimental: A mixture containing 3-5 compounds according to what described by Ward K. W. et al. (Drug Metab. Dispos. 2001, vol. 29, 82-88) was administered to rats at 10 mg/kg dosage by oral route (1 mg/ml in 77% N-methylglucosamine 25 mM and 20% PG containing 3% Tween 80) or 3 mg/kg intravenously (3 mg/ml in 15% DMSO/85% PEG).
The animals received only one treatment per study.
The rats permanently implanted with jugular catheter (Silastic®, Dow Corning) were treated with the test mixture by an intravenous bolus (via implanted catheter) or by oral gavage. Blood samples were collected from the jugular catheter at different times up to 6 h after administration.
Plasma samples were analyzed after protein precipitation by two volumes of CH3CN and plasma concentrations were determined by liquid chromatography/mass spectrometry.
Being poor the solubility of the compounds comprised in the general formula of the international patent application WO 00/05218, it was necessary to performe the pharmacokinetic studies using a 15% DMSO/85% PEG solution of the compounds both for intravenous and for oral route, i.e. by an absolutely non physiological vehicle.

For `COc1ccc2c(Cc3c(Cl)cncc3Cl)nnc(-c3sccc3C(=O)O)c2c1` [Compound 10, 2-[4-(3,5-dichloro-pyridin-4-ylmethyl)-7-methoxy-phthalazin-1-yl]-thiophene-3-carboxylic Acid], the IC50 [1] was 48 nM, the “PK rat t/2” value [2] was 21 min and the bioavailability [2] was 7%.
With `COc1ccc2c(Cc3c(Cl)cncc3Cl)nnc(-c3cccc(C(=O)O)c3)c2c1` [Compound 2, 3-[4-(3,5-dichloro-pyridin-4-ylmethyl)-7-methoxy-phthalazin-1-yl]-benzoic Acid] the IC50 [1] was 37 nM, the “PK rat t/2” value [2] was 132 min and the bioavailability [2] was 43%.
With `O=C(O)c1cccc(-c2nnc(Cc3c(Cl)cncc3Cl)c3ccc(OC(F)F)cc23)c1` [Compound 8, 3-[4-(3,5-dichloro-pyridin-4-ylmethyl)-7-difluoromethoxy-phthalazin-1-yl]-benzoic Acid] the “PK rat t/2” value [2] was 66 min and the bioavailability [2] was 41%.

Source: US20060166996A1, “Phthalazine derivatives as phosphodiesterase 4 inhibitors” (Zambon Group S.P.A., priority 2002, published 2006)
